These results are taken from PubChem BioAssay (NCI).

Common to all, as to assay: inhibition of tumour cell growth, NCI panel, 48 h
In assay [1] the test system is HT29 colon.
The subject of assay [2] is RPMI-8226 leukemia.
Assay [3] has as its system UACC-257 melanoma.
For assay [4], the system named is SK-OV-3 ovarian.
In assay [5] the test system is NCI-H522 lung.

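Exposure lasted 48 hours, with cells grown in 96-well plates and compounds tested at five concentrations. TGI: concentration producing complete growth inhibition.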

As for `CCN(CC)CCCNc1ccc([N+](=O)[O-])c2nc3ccccc3c(N)c12`, the TGI in assay [1] was 1.81 µM; in assay [2] it was 8.35 µM; in assay [3] it was above 10 µM; in assay [4], 3.4 µM.

Regarding `NCCCN(CCCCN(CCCN)Cc1ccccc1)Cc1ccccc1`, the TGI is 44.1 µM in assay [1]; above 100 µM in assay [2]; above 100 µM in assay [3]; above 100 µM in assay [4]; 23.9 µM in assay [5].

Take `CN(C)c1ccc(N=C2N=C(Nc3ccccc3)C(=Nc3ccccc3)S2)cc1`: the TGI in assay [1], in assay [3], in assay [4] and in assay [5] was above 100 µM each time.

Regarding `COC(=O)C1(Cc2ccccc2)Cc2ccccc2C1O` (configuration not stated), the TGI in assay [1], in assay [2], in assay [3], in assay [4] and in assay [5] was above 100 µM in each case.

With `CCS1=C2C(=O)CC(C)(C)CC2=Nc2ccccc21` (configuration not stated), the TGI in assay [1], in assay [2], in assay [3], in assay [4] and in assay [5] was above 100 µM each time.

On to `O=C1c2cc3c(cc2CC12Cc1ccccc1C2)CCC3`, for which the TGI in assay [1] is 50.5 µM; in assay [2] it was 68.2 µM; in assay [3], 54.4 µM; in assay [4], above 100 µM; in assay [5], 93.3 µM.

Turning to `O=S(Cc1ccccc1)c1ccccc1Cn1cccc1` (configuration not stated), the TGI in assay [1], in assay [2], in assay [3] and in assay [4] was above 100 µM in each case.

Consider `NC(=O)N/N=C\CC(O)(C(F)(F)Cl)C(F)(F)Cl`, for which the TGI in assay [1], in assay [2], in assay [3], in assay [4] and in assay [5] was above 10 µM each time.

For the compound `CCCCCCCCCCC/C=C(/C(=O)CCCO[Si](C)(C)C(C)(C)C)C(=O)OC`, the TGI in assay [1], in assay [2], in assay [3], in assay [4] and in assay [5] was above 100 µM in each case.

Consider `C/C(O)=C(/C=N/C(=S)Nc1ccccc1)C(=O)Nc1ccccc1C`, for which the TGI in assay [1], in assay [2], in assay [3], in assay [4] and in assay [5] was above 100 µM each time.

Turning to `Cc1ccc(S(=O)(=O)N(CCN)c2cc3c4c(c2)Oc2cccc5c2C4c2c(cccc2O3)O5)cc1`, the TGI was 28.6 µM in assay [1], above 100 µM in assay [2], 98.4 µM in assay [3] and above 100 µM in assay [4].

Turning to `Cc1cccc2c(N)c3cccc(C(=O)NCC[N+](C)(C)Cc4ccccc4[N+](=O)[O-])c3nc12`, the TGI is 19.8 µM in assay [1]; above 58.3 µM in assay [2]; above 70.7 µM in assay [3]; above 95.1 µM in assay [4]; 18.5 µM in assay [5].

Turning to `CCOC(=O)c1c(NC(=S)Nc2ccccc2)sc2c1CCN(C)C2`, the TGI in assay [1], in assay [2] and in assay [3] was above 100 µM each time.

As to `O=C(N/C(=C\c1ccccc1)c1nc2ccccc2c(=O)o1)c1ccccc1`, the TGI is above 100 µM in assay [1]; above 100 µM in assay [2]; above 72.6 µM in assay [3]; above 100 µM in assay [4]; above 100 µM in assay [5].

On to `Cc1c(-c2ccccc2)c(C#N)c2nnn(-c3ccc(Cl)cc3)c(=O)n12`, for which the TGI in assay [1] was above 100 µM; in assay [2], above 100 µM; in assay [3] it was above 100 µM; in assay [4] it was above 100 µM; in assay [5] it was 26.7 µM.

In the case of `S=C(NCCc1ccccn1)N/N=C(\c1ccccc1)c1ccccn1`, the TGI is 21.7 µM in assay [1]; above 58 µM in assay [2]; above 70.5 µM in assay [3]; above 66.2 µM in assay [4]; above 100 µM in assay [5].

Consider `CCOC(=O)c1cc(=O)c2cccc3c2n1CCS3`, for which the TGI in assay [1], in assay [3], in assay [4] and in assay [5] was above 100 µM in each case.

As for `O=C(/C=C/c1ccc([N+](=O)[O-])cc1)N1CCN(CCOC(c2ccc(F)cc2)c2ccc(F)cc2)CC1`, the TGI in assay [1] is above 100 µM; in assay [2] it was 36.9 µM; in assay [3] it was above 100 µM; in assay [4], above 100 µM; in assay [5], above 100 µM.

For the compound `COC(=O)CN(CC(=O)NCCNC(=O)OC(C)(C)C)C1CCCCC1N(CC(=O)OC)CC(=O)OC` (configuration not stated), the TGI in assay [1], in assay [2], in assay [3], in assay [4] and in assay [5] was above 100 µM each time.

Turning to `O=C(NC(CS)C(=O)O)c1c2ccccc2nc2ccccc12` (configuration not stated), the TGI in assay [1], in assay [2], in assay [3], in assay [4] and in assay [5] was above 100 µM throughout.

With `O=S(=O)(CC(Cl)c1ccccc1)c1nc2ccccc2s1` (configuration not stated), the TGI in assay [1] was 21.2 µM; in assay [2], 9.65 µM; in assay [3], 23.2 µM; in assay [4], 32.9 µM; in assay [5], 4.89 µM.

Regarding `O=C(O)CCC(NC(=O)c1ccc(Oc2nc3ccccc3nc2C(=O)O)cc1)C(=O)O` (configuration not stated), the TGI in assay [1], in assay [2], in assay [3], in assay [4] and in assay [5] was above 100 µM in each case.

Turning to `O=C(NCCCCCCCCNC(=O)Nc1cccc2ccccc12)Nc1cccc2ccccc12`, the TGI in assay [1] is above 100 µM; in assay [2] it was above 100 µM; in assay [3] it was above 100 µM; in assay [5], 87 µM.
